According to ChEMBL document CHEMBL1201862, “PubChem BioAssay data set” (2004):
Active and inactive are the calls of the source.

Tests used:
[1] = NIH-3T3 fibroblast cytotoxicity, dose response, cytotoxicity control, cell-based, fluorescence, Alamar Blue, secondary assay (AID 2327); assay type: functional;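 also: NIH-3T3 mouse fibroblasts cultured with fluconazole at 8 µg/mL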
[2] = target: Bifunctional protein GlmU (Mycobacterium tuberculosis, UniProt P9WMN3); test: Inhibitors of Mycobacterial Glucosamine-1-phosphate acetyl transferase (GlmU). Secondary screen.; design: species or system Mycobacterium tuberculosis H37Rv
Chain of Bifunctional protein GlmU (P9WMN3 whole entry): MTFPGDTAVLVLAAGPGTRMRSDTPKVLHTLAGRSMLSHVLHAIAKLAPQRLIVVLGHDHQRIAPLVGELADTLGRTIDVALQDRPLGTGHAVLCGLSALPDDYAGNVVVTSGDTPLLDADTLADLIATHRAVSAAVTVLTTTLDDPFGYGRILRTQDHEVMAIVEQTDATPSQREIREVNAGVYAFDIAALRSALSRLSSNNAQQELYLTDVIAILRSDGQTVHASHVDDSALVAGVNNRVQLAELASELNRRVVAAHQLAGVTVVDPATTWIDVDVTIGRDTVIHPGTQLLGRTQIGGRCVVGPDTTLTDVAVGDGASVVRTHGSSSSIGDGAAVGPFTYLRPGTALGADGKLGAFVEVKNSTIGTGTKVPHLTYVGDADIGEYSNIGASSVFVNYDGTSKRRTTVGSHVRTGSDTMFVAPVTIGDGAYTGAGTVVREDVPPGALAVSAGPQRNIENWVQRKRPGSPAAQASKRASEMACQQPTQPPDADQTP

[3] = target: Induced myeloid leukemia cell differentiation protein Mcl-1 (Homo sapiens, UniProt Q07820); assay type: functional
Chain of Induced myeloid leukemia cell differentiation protein Mcl-1 (Q07820 whole entry): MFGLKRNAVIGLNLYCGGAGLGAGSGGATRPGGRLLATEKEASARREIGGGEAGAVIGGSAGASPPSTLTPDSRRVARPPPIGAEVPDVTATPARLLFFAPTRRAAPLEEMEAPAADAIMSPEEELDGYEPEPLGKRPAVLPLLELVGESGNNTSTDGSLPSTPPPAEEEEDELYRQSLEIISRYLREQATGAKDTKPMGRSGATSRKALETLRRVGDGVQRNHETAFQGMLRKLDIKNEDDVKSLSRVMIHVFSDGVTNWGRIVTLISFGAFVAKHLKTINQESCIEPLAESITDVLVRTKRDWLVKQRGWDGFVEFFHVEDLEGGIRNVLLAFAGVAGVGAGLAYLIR

[4] = fluconazole-exposed Candida albicans growth modulators – fluorescence, retest, confirmation (AID 2467); assay type: functional, cell-based
[5] = target: T1, RNA-binding protein pos-1 (Caenorhabditis elegans, UniProt G5EF15); test: disruptors of C. elegans POS-1 RNA interaction – biochemical, fluorescence polarization, dose response (AID 1964);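 also: purified POS-1 fused to maltose binding protein made in E. coli; potency of compounds blocking POS-1 binding to fluorescent RNA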
T1 sequence (G5EF15 whole entry): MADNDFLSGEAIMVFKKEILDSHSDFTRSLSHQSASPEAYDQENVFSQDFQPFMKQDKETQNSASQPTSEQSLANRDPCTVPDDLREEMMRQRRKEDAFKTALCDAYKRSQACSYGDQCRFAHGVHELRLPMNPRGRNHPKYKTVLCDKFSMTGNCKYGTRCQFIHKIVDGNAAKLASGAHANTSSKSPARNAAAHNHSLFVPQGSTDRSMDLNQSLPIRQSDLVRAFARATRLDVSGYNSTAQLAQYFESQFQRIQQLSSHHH

[6] = target: T2, Zinc finger protein mex-5 (Caenorhabditis elegans, UniProt Q9XUB2); test: potency of MEX-5 RNA-binding blockers – biochemical, C. elegans, fluorescence polarization, dose response (AID 1960)
T2 sequence (Q9XUB2 whole entry): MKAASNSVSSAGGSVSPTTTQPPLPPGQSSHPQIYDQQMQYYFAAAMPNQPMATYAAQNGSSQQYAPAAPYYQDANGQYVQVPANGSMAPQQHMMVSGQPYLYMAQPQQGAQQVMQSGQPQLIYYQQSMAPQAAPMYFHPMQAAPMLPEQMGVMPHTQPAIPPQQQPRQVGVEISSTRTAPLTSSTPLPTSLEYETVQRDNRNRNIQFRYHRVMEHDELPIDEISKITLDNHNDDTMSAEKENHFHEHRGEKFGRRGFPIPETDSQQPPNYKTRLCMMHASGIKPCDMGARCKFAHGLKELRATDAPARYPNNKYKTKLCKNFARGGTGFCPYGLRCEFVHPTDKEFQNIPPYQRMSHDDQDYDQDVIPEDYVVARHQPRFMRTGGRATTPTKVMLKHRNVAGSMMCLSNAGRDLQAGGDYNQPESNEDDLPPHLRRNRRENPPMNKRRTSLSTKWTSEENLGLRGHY

[7] = mitochondrial function rescue without frataxin homolog – Friedreich's ataxia, plus single-dose screen, dose response (AID 1465); assay type: functional;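 also: yeast depleted of Yfh1p frataxin homolog grown on glycerol needing respiration; WST-1 tetrazolium dye reduction as measure of cellular dehydrogenase metabolic activity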
[8] = target: T3, Bcl-2-related protein A1 (Mus musculus, UniProt Q07440); test: small-molecule antagonists of Bfl-1/BH3 interaction – biochemical, TR-FRET, mouse Bfl-1, confirmation (AID 621);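 also: TR-FRET binding of GST-Bfl-1 to FITC-labelled Bid peptide via terbium antibody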
T3 sequence (Q07440 whole entry): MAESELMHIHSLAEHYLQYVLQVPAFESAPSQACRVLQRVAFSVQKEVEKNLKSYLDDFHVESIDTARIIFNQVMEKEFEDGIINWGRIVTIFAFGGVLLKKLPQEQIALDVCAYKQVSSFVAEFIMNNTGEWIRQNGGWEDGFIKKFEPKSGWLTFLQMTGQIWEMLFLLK

[9] = target: Glyceraldehyde-3-phosphate dehydrogenase (Homo sapiens, UniProt P04406)
Chain of Glyceraldehyde-3-phosphate dehydrogenase (P04406 whole entry): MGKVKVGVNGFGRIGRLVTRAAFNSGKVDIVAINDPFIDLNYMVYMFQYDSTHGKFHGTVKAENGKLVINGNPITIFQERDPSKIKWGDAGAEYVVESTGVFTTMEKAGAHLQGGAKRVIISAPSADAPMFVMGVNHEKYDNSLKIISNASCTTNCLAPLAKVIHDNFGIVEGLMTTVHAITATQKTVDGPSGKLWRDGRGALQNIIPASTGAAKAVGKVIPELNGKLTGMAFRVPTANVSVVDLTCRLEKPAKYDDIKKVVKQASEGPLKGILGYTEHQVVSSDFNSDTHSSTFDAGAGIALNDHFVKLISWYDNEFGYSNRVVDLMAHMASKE

[10] = target: T3, Bcl-2-related protein A1; test: Bfl-1 binding inhibitors, SAR follow-up, biochemical, fluorescence polarization (AID 1070)
[11] = cells
[12] = NIH3T3 cell viability loss – ATP luminescence, mouse fibroblasts, counter-screen, dose response (AID 2010); assay type: functional, cell-based;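 also: cells exposed to compound for about 90 hours before reading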
[13] = Trypanosoma cruzi growth suppression in host cells – NIH3T3 host cells, beta-gal luminescence, confirmation (AID 2044); assay type: functional, cell-based;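 also: intracellular parasites grown in NIH/3T3 mouse fibroblasts as host cells; luminescent beta-galactosidase reporter signal from transgenic T. cruzi replicating inside host cells; inhibitors lower the luminescence signal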
[14] = A High Throughput Confirmatory Assay used to Identify Novel Compounds that Inhibit Mycobacterium Tuberculosis in the absence of Glycerol.; assay type: functional
[15] = target: T4, Mannose-6-phosphate isomerase (Homo sapiens, UniProt P34949); test: phosphomannose isomerase inhibition – biochemical, fluorescence intensity, confirmation (AID 1535)
T4 sequence (P34949 whole entry): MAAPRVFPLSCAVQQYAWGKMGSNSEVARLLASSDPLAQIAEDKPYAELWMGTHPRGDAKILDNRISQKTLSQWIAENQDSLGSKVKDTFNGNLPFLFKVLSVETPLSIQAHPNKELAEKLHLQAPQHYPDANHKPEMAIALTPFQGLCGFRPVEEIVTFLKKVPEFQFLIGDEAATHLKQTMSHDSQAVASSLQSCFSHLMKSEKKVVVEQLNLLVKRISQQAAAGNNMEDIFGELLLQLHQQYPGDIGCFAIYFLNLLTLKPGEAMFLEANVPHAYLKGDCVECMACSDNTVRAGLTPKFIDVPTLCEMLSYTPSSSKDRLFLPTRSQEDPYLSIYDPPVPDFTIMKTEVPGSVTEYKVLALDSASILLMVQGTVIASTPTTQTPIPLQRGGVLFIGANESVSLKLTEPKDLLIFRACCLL

[16] = target: T4, Mannose-6-phosphate isomerase; test: MPI enzyme activity inhibition – biochemical, fluorescence intensity, coupled assay, primary screen (AID 1209)
[17] = target: DNA dC->dU-editing enzyme APOBEC-3G (Homo sapiens, UniProt Q9HC16); test: Dose Response confirmation of small molecule APOBEC3G DNA Deaminase Inhibitors via a fluorescence-based single-stranded DNA deaminase assay. [Related pubchem assays (depositor defined):AID493012, AID493028]; assay type: functional
Chain of DNA dC->dU-editing enzyme APOBEC-3G (Q9HC16 whole entry): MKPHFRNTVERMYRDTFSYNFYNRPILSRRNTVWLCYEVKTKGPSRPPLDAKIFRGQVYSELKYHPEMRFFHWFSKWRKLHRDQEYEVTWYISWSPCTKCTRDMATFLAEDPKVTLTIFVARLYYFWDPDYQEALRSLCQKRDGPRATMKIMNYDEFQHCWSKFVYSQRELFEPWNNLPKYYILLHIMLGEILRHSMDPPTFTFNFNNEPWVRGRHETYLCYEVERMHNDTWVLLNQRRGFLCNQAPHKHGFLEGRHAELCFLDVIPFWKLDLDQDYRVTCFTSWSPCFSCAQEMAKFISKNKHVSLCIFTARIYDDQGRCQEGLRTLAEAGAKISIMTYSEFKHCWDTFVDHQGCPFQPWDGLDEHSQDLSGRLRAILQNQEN

[18] = target: DNA dC->dU-editing enzyme APOBEC-3A (Homo sapiens, UniProt P31941); test: A3A deaminase inhibition for selectivity – biochemical, dose response (AID 504722); assay type: functional
Chain of DNA dC->dU-editing enzyme APOBEC-3A (P31941 whole entry): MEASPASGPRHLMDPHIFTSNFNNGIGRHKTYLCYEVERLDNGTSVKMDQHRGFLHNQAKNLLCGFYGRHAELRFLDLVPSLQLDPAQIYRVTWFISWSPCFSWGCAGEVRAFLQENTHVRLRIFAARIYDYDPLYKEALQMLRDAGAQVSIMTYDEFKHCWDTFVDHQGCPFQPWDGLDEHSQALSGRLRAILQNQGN

[19] = target: T5, Phosphomannomutase 2 (Homo sapiens, UniProt O15305); test: Counter screen SAR assay for PMM2 inhibitors via a fluorescence intensity assay. [Related pubchem assays (depositor defined):AID1545, AID1574]
T5 sequence (O15305 whole entry): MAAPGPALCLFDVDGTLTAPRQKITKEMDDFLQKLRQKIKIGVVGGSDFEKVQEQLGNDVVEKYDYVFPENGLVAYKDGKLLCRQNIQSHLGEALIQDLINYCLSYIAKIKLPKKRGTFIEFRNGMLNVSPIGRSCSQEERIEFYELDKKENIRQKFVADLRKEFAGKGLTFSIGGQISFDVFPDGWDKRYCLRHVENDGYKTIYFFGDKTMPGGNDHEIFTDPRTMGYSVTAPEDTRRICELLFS

[20] = target: FAD-linked sulfhydryl oxidase ALR (Homo sapiens, UniProt P55789); test: ALR-catalysed DTT oxidation blockers – biochemical, H2O2 detection, luminescence, cherry-pick, dose response (AID 493248)
Chain of FAD-linked sulfhydryl oxidase ALR (P55789 whole entry): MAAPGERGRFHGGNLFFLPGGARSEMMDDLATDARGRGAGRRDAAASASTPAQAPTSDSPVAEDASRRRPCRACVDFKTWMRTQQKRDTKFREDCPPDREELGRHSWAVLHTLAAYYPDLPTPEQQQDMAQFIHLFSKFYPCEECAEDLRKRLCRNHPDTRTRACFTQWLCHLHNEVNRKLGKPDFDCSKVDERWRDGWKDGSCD

[21] = target: T6, NADPH oxidase 1 (Homo sapiens, UniProt Q9Y5S8); assay type: functional, cell-based;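 also: Cell-based assay with luminescence read-out, IC50 derived from inhibitor dose-response curves; intracellular ROS from endogenous NOX1 in intact HT29 colon cancer cells; potency of inhibitors that lower the ROS luminescence signal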
T6 sequence (Q9Y5S8 whole entry): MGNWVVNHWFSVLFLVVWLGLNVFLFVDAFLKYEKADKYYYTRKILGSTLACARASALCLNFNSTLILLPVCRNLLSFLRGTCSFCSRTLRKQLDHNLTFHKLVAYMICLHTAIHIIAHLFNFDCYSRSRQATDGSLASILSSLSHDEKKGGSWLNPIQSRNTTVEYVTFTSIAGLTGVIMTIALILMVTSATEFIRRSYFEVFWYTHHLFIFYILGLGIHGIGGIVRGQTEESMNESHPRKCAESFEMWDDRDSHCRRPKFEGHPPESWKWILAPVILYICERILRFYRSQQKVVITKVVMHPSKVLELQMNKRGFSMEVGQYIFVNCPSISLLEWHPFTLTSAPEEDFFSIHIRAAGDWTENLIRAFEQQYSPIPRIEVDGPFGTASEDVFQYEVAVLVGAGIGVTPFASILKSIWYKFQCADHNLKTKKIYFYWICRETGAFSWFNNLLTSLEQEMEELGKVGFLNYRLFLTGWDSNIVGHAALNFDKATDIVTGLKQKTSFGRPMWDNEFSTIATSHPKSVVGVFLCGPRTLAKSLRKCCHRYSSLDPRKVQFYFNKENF

CN(C)S(=O)(=O)c1cccc(NC(=S)N/N=C/c2ccc(O)c(O)c2O)c1
EC50 [1]: > 150 µM (inactive)
IC50 [2]: 68.4 µM (active)
IC50 [3]: 1.17 µM (active)
EC50 [4]: > 38 µM (not active)
EC50 [5]: 15 µM (active)
EC50 [6]: 3.48 µM (active)
EC50 [7]: > 100 µM (active)

O=C1C(Cl)=C(N2CCOCC2)C(=O)N1c1ccc(Cl)nc1
IC50 [8]: 15.1 µM (active)
IC50 [9]: > 100 µM (not active)
IC50 [10]: 12.6 µM (active)

CCCCc1c(CCC)c(=N)c2ccccc2n1C
EC50 [11]: 17 nM (active)
EC50 [12]: > 60 µM (inconclusive)
EC50 [13]: < 100 nM (active)

CCc1nc2ccccc2c(C(=O)Nc2cc(C)ccc2C)c1C
IC50 [14]: > 100 µM (active)

COc1ccc(-c2n[nH]c(=S)[nH]2)cc1OC
IC50 [15]: 29 µM (active)
IC50 [16]: 8.55 µM (active)
IC50 [17]: 3.45 µM (active)
IC50 [18]: > 100 µM (inactive)
IC50 [19]: > 100 µM (inactive)
AC50 [20]: 11 nM (active)

O=[N+]([O-])c1cccc(-c2nc(-c3ccccc3)c(-c3ccccc3)[nH]2)c1
IC50 [21]: > 17 µM (not active)
